The subject of experiment [1] is beta cells. The following applies: HDAC inhibition, presumably by decreasing NF-κB transactivation; cited from earlier work.
The subject of experiment [2] is INS-1E cells. The experiment is described as follows: Cellular ATP levels (CellTiter-Glo) in cytokine-treated INS-1E cells; suppression of cytokine-induced beta-cell apoptosis. It counts as cell-based, rat. How it is done:
The compounds were analyzed for activity utilizing methods described in Chou et al. (ACS Chem. Biol. 2010 Aug. 20; 5(8):729-34).
INS-1E cells were seeded at 10,000 cells per well using a Multidrop Combi (Thermo Labsystems) in white optical 384-well plates (Corning Life Sciences). After overnight incubation, medium was removed and 50 μL of RPMI containing 1% FBS and a combination of cytokines (10 ng mL-^1 IL-1β, 50 ng mL^−1 IFN-γ, 25 ngmL^−1 TNF-α) was added to every well. Using libraries of compounds dissolved in DMSO and a CyBi-Well pin-transfer robot (CyBio Corp.), 0.1 μL of each compound was added. After 48 h, medium was removed and 20 μL of CellTiter-Glo reagent was added. Luminescence was measured after 10 min of incubation using an EnVision plate reader (PerkinElmer).
Instrument output files were processed using Pipeline Pilot (Accelrys) and input to MATLAB (The MathWorks) for data normalization. Compound performance scores relative to a distribution of mock-treated (DMSO) wells were calculated using a revised version of the scoring system underlying ChemBank. (Seiler et al., Nucleic Acids Res. 36, D351-359, 2008). The role of replicate treatments was further developed as follows: first, mock-treatment distributions were modeled using all mock-treated wells measured on a single day, regardless of their nominal replicate; second, per-compound scores weighted each in-plate background-subtracted measurement by the uncertainty in that measurement, using the method of maximum likelihood. The uncertainty in a single background-subtracted measurement was estimated using the number of mock-treated wells on the plate and, as a measure of the assay noise, the standard deviation of the per-day mock-treatment distribution. The signal, a weighted average of differences, was scaled by the noise, the standard deviation of the mock treatment distribution.
INS-1E cells were seeded at 10,000 cells/well using a Multidrop Combi (Thermo Labsystems) in white optical 384-well plates (Corning Life Sciences). After overnight incubation, medium was removed and 50 μL RPMI containing the treated compound, 1% FBS and a combination of cytokines (10 ng/mL IL-1β, 50 ng/mL IFN-γ, 25 ng/mL TNF-α) was added to every well. After incubation for 48 hr, medium was removed and 20 μL CellTiter-Glo reagent was added. Luminescence was measured after 10-min incubation using an EnVision plate reader (PerkinElmer).
On the technique in general: In ATP-based viability assays light output follows the ATP content of the culture.

Experiment [3] concerns INS-1E cells. The experiment is described as follows: Caspase-3 activity assay (Caspase-Glo 3/7) in cytokine-treated INS-1E cells. It is filed as cell-based, rat. The following applies: cytokines, 48 h, Caspase-Glo 3/7. How it is done: INS-1E cells were seeded at 5,000 cells per well in white optical 384-well plates and treated as described for highthroughput screening. After treatment with cytokines and compounds for 48 h, medium was removed and 20 μL Caspase-Glo 3/7 reagent was added. Luminescence was measured after 2 h of incubation using an EnVision plate reader.

[4] abbreviates: INS-1E cells, cytokines IL-1β, IFN-γ, TNF-α, 48 h, CellTiter-Glo, read-out: CTG EC50 in HTS.
[5] abbreviates: Rattus norvegicus, INS-1E, assay not named, read-out: EC50.
[6] abbreviates: Rattus norvegicus, INS-1E cells, cytokines IL-1β, IFN-γ, TNF-α, 48 h, CellTiter-Glo, read-out: CTG EC50 in HTS.

As to `CC(/C=C/C(=O)NO)=C\[C@@H](C)C(=O)c1ccc(N(C)C)cc1` [TSA, trichostatin A], the cytokine-induced beta-cell death result in experiment [1] is on record as “can prevent cytokine-induced beta-cell death”.

Take `O=C(CCCCCCC(=O)Nc1ccccc1)NO` [SAHA, suberoylanilide hydroxamic acid]: in experiment [1], the cytokine-induced beta-cell death entry is on record as “can prevent cytokine-induced beta-cell death”.

As to `C[C@@H]1CN([C@@H](C)CO)C(=O)c2cccc(NC(=O)Nc3cccc4ccccc34)c2O[C@H]1CN(C)CS(=O)(=O)c1ccc(F)cc1` [Compound 9A], the concentration giving a half-maximal response (EC50) in experiment [2] (setting [4]) and in experiment [3] was more than 25 µM each time.

In the case of `Cc1ccc(S(=O)(=O)N(C)C[C@@H]2Oc3c(NC(=O)Nc4ccc(F)cc4)cccc3C(=O)N([C@@H](C)CO)C[C@H]2C)cc1` [Compound 37A], the EC50 in experiment [2] (setting [4]) and in experiment [3] was more than 25 µM each time.

As to `C[C@@H]1CN([C@@H](C)CO)C(=O)c2cccc(NC(=O)Nc3ccc(F)cc3)c2O[C@H]1CN(C)S(=O)(=O)c1ccc(F)cc1` [Compound 38A], the EC50 in experiment [2] (setting [4]) and in experiment [3] was more than 25 µM in each case.

`COc1ccc(S(=O)(=O)N(C)C[C@@H]2Oc3c(NC(=O)Nc4ccc5occc5c4)cccc3C(=O)N([C@@H](C)CO)C[C@H]2C)cc1` [Compound 44A]: the 50% effective concentration (EC50) in experiment [2] (setting [4]) and in experiment [3] was more than 25 µM each time.

For `Cc1ccc(S(=O)(=O)N(C)C[C@@H]2Oc3c(NC(=O)Nc4cccc5ccccc45)cccc3C(=O)N([C@@H](C)CO)C[C@H]2C)cc1` [Compound 2A, N-(((2R,3R)-5-((S)-1-hydroxypropan-2-yl)-3-methyl-10-(3-(naphthalen-1-yl)ureido)-6-oxo-3,4,5,6-tetrahydro-2H-benzo[b][1,5]oxazocin-2-yl)methyl)-N,4-dimethylbenzenesulfonamide], the EC50 in experiment [2] (setting [5]) was 5.5 µM; in experiment [2] (setting [6]), more than 10 µM; in experiment [3] (Rattus norvegicus), more than 25 µM.

As to `C[C@@H]1CN([C@@H](C)CO)C(=O)c2cccc(NC(=O)Nc3cccc4ccccc34)c2O[C@H]1CN(C)S(=O)(=O)c1ccc(F)cc1` [Compound 6A], the EC50 in experiment [2] (setting [4]) and in experiment [3] was more than 25 µM in each case.

As to `COc1ccc(S(=O)(=O)N(C)C[C@@H]2Oc3c(NC(=O)Nc4cccc5c4CC(C)(C)O5)cccc3C(=O)N([C@@H](C)CO)C[C@H]2C)cc1` [Compound 46A], the EC50 in experiment [2] (setting [4]) and in experiment [3] was more than 25 µM in each case.

In the case of `COc1ccc(S(=O)(=O)N(C)C[C@@H]2Oc3c(NC(=O)Nc4cccc(C(F)(F)F)c4)cccc3C(=O)N([C@@H](C)CO)C[C@H]2C)cc1` [Compound 42A], the concentration for a half-maximal effect (EC50) in experiment [2] (setting [4]) and in experiment [3] was more than 25 µM each time.

As to `C[C@@H]1CN([C@@H](C)CO)C(=O)c2cccc(NC(=O)Nc3cccc4ccccc34)c2O[C@H]1CN(C)S(=O)(=O)c1ccc(OC(F)(F)F)cc1` [Compound 16A], the EC50 in experiment [2] (setting [4]) was more than 10 µM; in experiment [3], more than 25 µM.

Regarding `C[C@@H]1CN([C@@H](C)CO)C(=O)c2cccc(NC(=O)Nc3cccc4ccccc34)c2O[C@H]1CN(C)S(=O)(=O)c1cn(C)cn1` [Compound 36A], the EC50 in experiment [2] (setting [4]) and in experiment [3] was more than 25 µM in each case.

On to `C[C@@H]1CN([C@@H](C)CO)C(=O)c2cccc(NC(=O)Nc3cccc4ccccc34)c2O[C@H]1CN(C)S(=O)(=O)c1ccccc1` [Compound 4A], for which the EC50 in experiment [2] (setting [4]) and in experiment [3] was more than 25 µM each time.

Take `COc1ccccc1S(=O)(=O)N(C)C[C@@H]1Oc2c(NC(=O)Nc3cccc4ccccc34)cccc2C(=O)N([C@@H](C)CO)C[C@H]1C` [Compound 17A]: the EC50 in experiment [2] (setting [4]) and in experiment [3] was more than 25 µM throughout.

On to `C[C@@H]1CN([C@@H](C)CO)C(=O)c2cccc(NC(=O)Nc3cccc4ccccc34)c2O[C@H]1CN(C)S(=O)(=O)c1ccc(Oc2ccccc2)cc1` [Compound 12A], for which the EC50 in experiment [2] (setting [4]) and in experiment [3] was more than 25 µM throughout.

Regarding `COc1ccc(S(=O)(=O)N(C)C[C@@H]2Oc3c(NC(=O)Nc4cccc5ccccc45)cccc3C(=O)N([C@@H](C)CO)C[C@H]2C)cc1` [Compound 1A, N-(((2R,3R)-5-((S)-1-hydroxypropan-2-yl)-3-methyl-10-(3-(naphthalen-1-yl)ureido)-6-oxo-3,4,5,6-tetrahydro-2H-benzo[b][1,5]oxazocin-2-yl)methyl)-4-methoxy-N-methylbenzenesulfonamide], the concentration for a half-maximal effect (EC50) was 0.423 µM in experiment [2] (setting [5]), more than 0.1 µM in experiment [2] (setting [6]) and more than 0.1 µM in experiment [3] (Rattus norvegicus). Besides, the half-inhibitory concentration (IC50) in experiment [2] (Rattus norvegicus, INS-1E, read-out: IC50, inhibition of cytokine-induced beta cell apoptosis) amounted to 4.9 µM.

In general, EC50 refers to the concentration that produces a half-maximal response. As a reminder, the IC50 is the concentration that gives 50% inhibition.

The values are drawn from patent US8741905B2, “Compounds and methods for treating autoimmune diseases” (The Broad Institute, Inc., priority 2010, dated 2014).
